Measured values: patent US20100003217A1, “Compounds and Pharmaceutical Compositions for the Treatment of Viral Infections” (priority 2008, published 2010)
“And” between values parts separate entries of the source, which are not always exact repeats. Equal values may be shown once. Each block holds one compound with its values, some of them ahead of it.

Experiments:
[1] = test system: monkey primary hepatocytes; experiment: Metabolic disposition of [^14C]-Compound 1 and [^14C]-2′-C-methyl guanosine in monkey primary hepatocytes (incubation medium, cellular extracts, nucleotide levels); type: in vitro ADME, Cynomolgus monkey; conditions: for decrease in Compound 1 medium levels: monkey hepatocytes; for decrease in Compound 1 medium levels / % Residual [^14C]-Compound 1 in incubation medium: 10 μM
Description: (§1) Primary hepatocytes: Freshly isolated cells from animal and human liver were obtained in suspension on ice. Cells were pelleted by centrifugation at 70-75×g (rat) or 95-90×g (monkey and human) and resuspended at 0.8 million cells per mL of platting medium (William's E supplemented with 5% FBS, 0.5% penicillin-streptomycin, 1% L-glutamine, 4 μg/mL insulin and 1 μM dexamethasone). Multi-well collagen I-coated plates (rat tail collagen type I; 12- or 6-well) were then seeded by addition of 1 mL (12-well; 0.8 million cells/well) or 2 mL (6-well; 1.6 million cells/well) of cell suspension. The plates were gently shaken to evenly distribute the cells and placed in an incubator at 37° C. for approximately 4 to 6 hours to allow cells to attach. Once cells were attached, the platting medium was removed and replaced with hepatocyte culture medium (William's E supplemented with penicillin-streptomycin, 1% L-glutamine, 1% insulin-transferrin-selenium and 0.1 μM dexamethasone). Cells were left overnight in an incubator at 37° C. to acclimatize to culture and the medium.
(§2) Hepatocyte incubations with radiolabeled Compound 1 and 2′-C-methyl guanosine, both labeled in the C-8 position of the guanine moiety, were conducted at a final volume of 2.0 mL hepatocyte culture medium/well ([…]). Culture medium from overnight incubation of cells was removed and replaced with fresh medium, pre-warmed to 37° C., containing 1 or 10 μM [^14C]-Compound 1 ([…]) or [^14C]-2′-C-methyl guanosine (127 DPM/μmol) from a stock solution in DMSO (final DMSO concentration was 0.1%) or 50% ethanol (final ethanol concentration was 0.2%). After 1, 4, 8 and 24 hours, 0.5-1.0 mL of incubation medium was removed and stored at −20° C. until analysis (described below). The remaining medium was discarded and cell monolayers were carefully washed two times with ice-cold PBS. Following the last wash, all PBS was carefully removed and 1.0 mL of extraction solution (ice-cold 70% methanol) added. Cells were scrapped off and suspended in the extraction solution, transferred to 2 mL polypropylene microfuge tubes and intracellular contents extracted overnight at −20° C.
(§3) Preliminary identification of putative metabolites was conducted by comparing the retention time of observed metabolites in incubation medium and cellular extracts with retention times obtained with chemically synthesized standards using the chromatography conditions described below. Further identification of 2′-C-methyl guanosine nucleotides (mono-, di- and triphosphate) was carried out by incubating cellular extract samples with alkaline phosphatase (10 units for 60 min at 37° C.) and comparing the HPLC retention times of the resulting nucleosides with that of authentic 2′-C-methyl guanosine.
(§4) Cellular extracts were prepared by centrifugation at 16,000 RCF using an Eppendorf microcentrifuge (Eppendorf, Model 5415D) for 10 min to remove cellular debris. An aliquot of 5-10 μL of the supernatant was added to 5 mL of EcoLite™ (MP, Irvine, Calif.) liquid scintillation cocktail and radioactivity measured by liquid scintillation counting (LSC) using a Beckman Coulter LS6500 multipurpose liquid scintillation counter (Beckman Instruments, Fullerton, Calif.). The remaining sample was then dried using a Labconco refrigerated centrivap concentrator (Labconco, Kansas City, Mo.). Dry extracts were reconstituted in 120 μL of HPLC-grade water and centrifuged at 16,000 RCF using an Eppendorf microcentrifuge for 10 min. Prior to HPLC analysis (described below), radioactivity of the concentrated extracts was measured by LSC using 5 μL aliquots. Extraction recovery was then determined by comparing total radioactivity in extracts before and after drying. The remaining extract was then analyzed by HPLC with online radioactivity detection using a Flow Scintillation Analyzer Radiomatic™ 515TR. Radioactivity in the separated components was quantified by integrating the peaks using Flo-One™ Software (Perkin Elmer Life Sciences). […]

rat primary hepatocytes = experiment: Metabolic disposition of [^14C]-Compound 1 and [^14C]-2′-C-methyl guanosine in rat primary hepatocytes (incubation medium, cellular extracts, nucleotide levels); type: in vitro ADME, Sprague Dawley rat
Description: as §1, §2, §3, §4

[2] = rat hepatocytes (Rs448, Rs458), 10 μM [^14C]-Compound 1, 24 h
[3] = rat hepatocytes (Rs458), 1 μM [^14C]-Compound 1, 1 h
[4] = rat hepatocytes (Rs458), 1 μM [^14C]-Compound 1, 8 h
[5] = rat hepatocytes (Rs458), 1 μM [^14C]-Compound 1, 24 h

SMILES: CC(C)(CO)C(=O)SCCOP(=O)(NCc1ccccc1)OC[C@H]1O[C@@H](n2cnc3c(=O)[nH]c(N)nc32)[C@](C)(O)[C@@H]1O (mixture of isomers) [Compound 1, 3-hydroxy-2,2-dimethyl-thiopropionic acid S-(2-{[(2R,3R,4R,5R)-5-(2-amino-6-oxo-1,6-dihydro-purin-9-yl)-3,4-dihydroxy-4-methyl-tetrahydro-furan-2-ylmethoxy]-benzylamino-phosphoryloxy}-ethyl) ester]
metabolites observed in cellular extracts (% of total radioactivity) ([1]; monkey hepatocytes (Cy230, Cy234), 10 μM [^14C]-Compound 1, 8 h): BLD | metabolites observed in cellular extracts (% of total radioactivity) ([1]; monkey hepatocytes (Cy230, Cy234), 10 μM [^14C]-Compound 1, 24 h): undetected and BLD | metabolites observed in cellular extracts (% of total radioactivity) ([1]; monkey hepatocytes (Cy234), 10 μM [^14C]-Compound 1, 4 h): 3.03% | decrease in Compound 1 medium levels ([1]; 8 hours): about 40% | decrease in Compound 1 medium levels ([1]; 24 hours): 77% | % Residual [^14C]-Compound 1 in incubation medium ([1]; monkey primary hepatocytes (n=2), 0 h): 97% and 91% | % Residual [^14C]-Compound 1 in incubation medium ([1]; monkey primary hepatocytes (n=2), 1 h): 95% and 67% | % Residual [^14C]-Compound 1 in incubation medium ([1]; monkey primary hepatocytes (n=2), 8 h): 63% and 61% | % Residual [^14C]-Compound 1 in incubation medium ([1]; monkey primary hepatocytes (n=2), 24 h): 16% and 31% | % Residual [^14C]-Compound 1 in incubation medium ([1]; monkey primary hepatocytes, 4 h): 66% | metabolites observed in cellular extracts (% of total radioactivity) (rat primary hepatocytes; rat hepatocytes (Rs448, Rs458), 10 μM [^14C]-Compound 1, 1 h, listed as Compd 1): 15.0% and 19.7% | metabolites observed in cellular extracts (% of total radioactivity) (rat primary hepatocytes; rat hepatocytes (Rs448, Rs458), 10 μM [^14C]-Compound 1, 4 h, listed as Compd 1): 3.86% and 4.02% | metabolites observed in cellular extracts (% of total radioactivity) (rat primary hepatocytes; rat hepatocytes (Rs448, Rs458), 10 μM [^14C]-Compound 1, 8 h, listed as Compd 1): 1.20% and 0.95% | metabolites observed in cellular extracts (% of total radioactivity) (rat primary hepatocytes; [2]): undetected | metabolites observed in cellular extracts (% of total radioactivity) (rat primary hepatocytes; rat hepatocytes (Rs448, Rs458), 10 μM [^14C]-Compound 1, 24 h, listed as Compd 1): BLD | metabolites observed in cellular extracts (% of total radioactivity) (rat primary hepatocytes; [3]): 12.3% | metabolites observed in cellular extracts (% of total radioactivity) (rat primary hepatocytes; [4]): BLD | metabolites observed in cellular extracts (% of total radioactivity) (rat primary hepatocytes; [5]): BLD | reduction in Compound 1 medium levels (rat primary hepatocytes; rat hepatocytes, 1 μM, 8 hours): approximately 79% | decrease in Compound 1 medium levels (rat primary hepatocytes; rat hepatocytes, 10 μM, 4 hours): ~50% | % Residual [^14C]-Compound 1 in incubation medium (rat primary hepatocytes; rat primary hepatocytes (n=1), 1 μM, 0 h): 99% | % Residual [^14C]-Compound 1 in incubation medium (rat primary hepatocytes; rat primary hepatocytes (n=1), 1 μM, 1 h): 89% | % Residual [^14C]-Compound 1 in incubation medium (rat primary hepatocytes; rat primary hepatocytes (n=1), 1 μM, 8 h): 21% | % Residual [^14C]-Compound 1 in incubation medium (rat primary hepatocytes; rat primary hepatocytes (n=1), 1 μM, 24 h): 0% | % Residual [^14C]-Compound 1 in incubation medium (rat primary hepatocytes; rat primary hepatocytes (n=2), 10 μM, 0 h): 95% and 97% | % Residual [^14C]-Compound 1 in incubation medium (rat primary hepatocytes; rat primary hepatocytes (n=2), 10 μM, 1 h): 91% and 93% | % Residual [^14C]-Compound 1 in incubation medium (rat primary hepatocytes; rat primary hepatocytes (n=2), 10 μM, 4 h): 48% and 55% | % Residual [^14C]-Compound 1 in incubation medium (rat primary hepatocytes; rat primary hepatocytes (n=2), 10 μM, 8 h): 18% and 32% | % Residual [^14C]-Compound 1 in incubation medium (rat primary hepatocytes; rat primary hepatocytes (n=2), 10 μM, 24 h): 0%

metabolites observed in medium (% of total radioactivity) ([1]; monkey hepatocytes (lot Cy234), 10 μM [^14C]-Compound 1, 4 h): BLD | metabolites observed in medium (% of total radioactivity) ([1]; monkey hepatocytes (lots Cy230, Cy234), 10 μM [^14C]-Compound 1, 0 h): BLD | metabolites observed in medium (% of total radioactivity) ([1]; monkey hepatocytes (lots Cy230, Cy234), 10 μM [^14C]-Compound 1, 1 h): BLD | metabolites observed in medium (% of total radioactivity) ([1]; monkey hepatocytes (lots Cy230, Cy234), 10 μM [^14C]-Compound 1, 24 h): 3.1% and 0.9% | metabolites observed in cellular extracts (% of total radioactivity) (rat primary hepatocytes; rat hepatocytes (Rs448, Rs458), 10 μM [^14C]-Compound 1, 8 h): BLD | metabolites observed in cellular extracts (% of total radioactivity) (rat primary hepatocytes; [2]): BLD | metabolites observed in medium (% of total radioactivity) (rat primary hepatocytes; rat hepatocytes (Rs458), 1 μM [^14C]-Compound 1, 0 h): BLD | metabolites observed in medium (% of total radioactivity) (rat primary hepatocytes; [3]): BLD | metabolites observed in medium (% of total radioactivity) (rat primary hepatocytes; [4]): BLD | metabolites observed in medium (% of total radioactivity) (rat primary hepatocytes; [5]): 1.7% and 1.71% | metabolites observed in medium (% of total radioactivity) (rat primary hepatocytes; rat hepatocytes (lots Rs448, Rs458), 10 μM [^14C]-Compound 1, 0 h): BLD | metabolites observed in medium (% of total radioactivity) (rat primary hepatocytes; rat hepatocytes (lots Rs448, Rs458), 10 μM [^14C]-Compound 1, 1 h): BLD | metabolites observed in medium (% of total radioactivity) (rat primary hepatocytes; rat hepatocytes (lots Rs448, Rs458), 10 μM [^14C]-Compound 1, 4 h): 0.9% | metabolites observed in medium (% of total radioactivity) (rat primary hepatocytes; rat hepatocytes (lots Rs448, Rs458), 10 μM [^14C]-Compound 1, 8 h): 1.4% and 2.1% | metabolites observed in medium (% of total radioactivity) (rat primary hepatocytes; rat hepatocytes (lots Rs448, Rs458), 10 μM [^14C]-Compound 1, 24 h): 1.4% and 1.7%
SMILES: CC(C)(CO)C(=O)SCCOP(N)(=O)OC[C@H]1O[C@@H](n2cnc3c(=O)[nH]c(N)nc32)[C@](C)(O)[C@@H]1O (mixture of isomers) [Compound 3, {9-[(2R)2-C-methyl-β-D-ribo-furanosyl]-guanin}-5′-yl-O-(hydroxy-tert-butyl-S-acyl-2-thioethyl) phosphoramidate]
